Results taken from patent US20040082600A1, “Pharmaceutical composition” (priority 2001, published 2004).
Converted amounts (≈) assume the structure as drawn. Read-outs that look alike come from different tables or passages of the source.

Assay: Solubility in aqueous media
Assay type: physicochemical
Source text: The compounds mentioned at the outset and pharmaceutically usable salts thereof, such as, for example, ethanolamine salts thereof, have low solubilities in aqueous media. […] These poor solubilities have the consequence that the compound can only be taken up slowly and to an inadequate extent by the body. This is associated with poor bioavailability and a slow increase in the concentration in the blood.

Q: What does the source list for `COc1ccc(CNc2nc(C3CCC(C(=O)O)CC3)nc3sc4ccccc4c23)cc1Cl` (centres unmarked) [4-[4-(3-Chloro-4-methoxybenzylamino)benzo[4,5]thieno[2,3-d]pyrimidin-2-yl]cyclohexanecarboxylic acid]?
A: solubility (aqueous buffer, phosphate buffer (pH 1.0), read-out: solubility): 0.022 µg/mL (≈ 0.0456 µM); solubility (aqueous buffer, phosphate buffer (pH 6), read-out: solubility): 0.0016 µg/mL (≈ 0.00332 µM); solubility (aqueous buffer, phosphate buffer (pH 7.0), read-out: solubility): 0.019 µg/mL (≈ 0.0394 µM); solubility (synthetic gastric juice): 1 mg/100 ml; solubility (synthetic intestinal juice): 6 mg/100 ml
